According to patent US20110160255A1, “INHIBITORS OF AKT ACTIVITY” (priority 2008, published 2011):

Molecular target: T1, full length AKT1 (Homo sapiens, UniProt P31749)
T1 construct: His tag (from vector pFastBacHTb) (N); made in house; host or cells: Baculovirus, insect cells (virus made in Sf9, T. ni cells infected; the purification text says sf9 cells)
Assay: Full-length AKT enzyme assay (substrate phosphorylation, SPA)
Assay type: biochemical
Details: in at least one experimental run; pIC50 = -log(IC50), IC50 in molar units; 4 uM ATP, 10 nM activated enzyme; read-out: pIC50 against full length AKT1 (converted)
Text: Full-length human AKT1 gene was amplified by PCR from a plasmid containing myristylated-AKT1-ER (gift from Robert T. Abraham, Duke University under MTA, described in Klippel et al. in Molecular and Cellular Biology 1998 Volume 18 p. 5699) using the 5′ primer: SEQ. ID NO: 2 5′ […] 3′ and the 3′ primer: SEQ. ID NO: 3 […] 3′. The 5′ primer included a BamHI site and the 3′ primer included an XhoI site for cloning purposes. The resultant PCR product was subcloned in pcDNA3 as a BamHI/XhoI fragment. A mutation in the sequence (TGC) coding for a Cysteine^25 was converted to the wild-type AKT1 sequence (CGC) coding for an Arginine^25 by site-directed mutagenesis using the QuikChange® Site Directed Mutagenesis Kit (Stratagene). The AKT1 mutagenic primer: SEQ. ID NO: 4 5′[…] and selection primer: SEQ. […] For expression/purification purposes, AKT1 was isolated as a BamHI/XhoI fragment and cloned into the BamHI/XhoI sites of pFastbacHTb (Invitrogen).
Expression was done using the BAC-to-BAC Baculovirus Expression System from Invitrogen (catalog #10359-016). […]
Compounds of the present invention were tested for AKT 1, 2, and 3 protein serine kinase inhibitory activity in substrate phosphorylation assays. […] Substrate phosphorylation was detected by the following procedure. […]

T1 sequence (P31749 whole entry): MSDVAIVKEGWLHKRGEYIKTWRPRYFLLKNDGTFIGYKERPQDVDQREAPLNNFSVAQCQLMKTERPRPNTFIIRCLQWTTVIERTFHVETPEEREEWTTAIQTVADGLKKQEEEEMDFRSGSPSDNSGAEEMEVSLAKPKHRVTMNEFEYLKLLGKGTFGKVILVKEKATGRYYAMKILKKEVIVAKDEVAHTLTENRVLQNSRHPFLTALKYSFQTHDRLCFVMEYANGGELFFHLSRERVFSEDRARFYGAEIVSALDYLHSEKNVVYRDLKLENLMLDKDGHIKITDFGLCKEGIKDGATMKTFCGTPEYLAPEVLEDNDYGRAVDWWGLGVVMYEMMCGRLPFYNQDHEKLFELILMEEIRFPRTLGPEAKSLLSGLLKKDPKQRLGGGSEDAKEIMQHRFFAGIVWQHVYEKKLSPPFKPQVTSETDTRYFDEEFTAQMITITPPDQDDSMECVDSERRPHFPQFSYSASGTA

**Q.** `Cn1nccc1-c1nc(C(=O)N[C@H](CN)Cc2cccc(F)c2)cs1` [Example 1, N-{(1S)-2-amino-1-[(3-fluorophenyl)methyl]ethyl}-2-(1-methyl-1H-pyrazol-5-yl)-1,3-thiazole-4-carboxamide] was tested. Which IC50 did it give?
**A.** The IC50 was 501 nM.
